{
  "source": "patent US20110312968A1",
  "about": "“METHOD FOR OPTIMIZING THE TREATMENT OF CHRONIC MYELOID LEUKEMIA WITH ABL TYROSINE KINASE INHIBITORS” (priority 2008, published 2011)",
  "key": {"KCL22r cells": {"system": "KCL22r cells", "test": "5-Azacytidine treatment of Ima-resistant KCL22r cells: Ima sensitivity (Ima growth inhibition)", "format": "cell-based", "settings": "Ima-resistant KCL22r cell line after 5-AC treatment", "from_the_text": "(§1) In this study, we have first used, as model system, a couple of Ima-sensitive (KCL22s) and Ima-resistant (KCL22r) KCL22 cell lines. In these cells, Ima resistance is independent by the oncogenic Bcr/Abl activity. We have found a very low level of Shp1 (both mRNA and protein), a protein with a tumour suppressor activity, in the KCL22r resistant cells, when compared to KCL22s sensitive cells. […] Gain-of-function mutations have been described in various hemopoietic neoplasias including Juvenile Chronic Myelomonocytic Leukemia. In Ph+ cells, oncogenic Bcr/Abl protein activates Shp2 through Gab2, an adaptor protein that, once phosphorylated is able to bind SH2 domain of Shp2. Through complex interactions that may involve the two carboxy-terminal tyrosine residues (542 and 580) Shp2 is also a signal transducer of growth factor receptor. We hypothesized that, Shp1, through dephosphorylation, might modulate the activity of Shp2 and constitute an important mechanism of Ima resistance. […] The data on primary cells support the role of Shp1 in Ima resistance in patients."}, "[1]": {"system": "Shp1 expression in KCL22r cells", "test": "5-Azacytidine treatment of Ima-resistant KCL22r cells: Shp1 expression", "format": "cell-based", "settings": "Ima-resistant KCL22r cell line; along with demethylation of the SHP1 promoter region", "from_the_text": "as §1"}},
  "data": [
    {"smiles": "Nc1ncn([C@@H]2O[C@H](CO)[C@@H](O)[C@H]2O)c(=O)n1", "note": "[5-Azacytidine]", "values": [
      {"measurement": "Ima sensitivity, i.e. Ima growth inhibition", "setting": "KCL22r cells", "result": "re-established the Ima sensitivity"},
      {"measurement": "expression of Shp1", "setting": "[1]", "result": "re-induced expression of Shp1"}
    ]}
  ]
}
